The values that follow come from patent EP1007514B1, “HETEROCYCLIC KETONES AS NPY Y5 ANTAGONISTS” (BAYER CORPORATION, priority 1997, dated 1999).

In experiment [1] the target is T1, human NPY Y1 receptor subtype (Homo sapiens, UniProt P25929).
T1 construct: host or cells: SK-N-MC cells
T1 sequence (P25929 1-384): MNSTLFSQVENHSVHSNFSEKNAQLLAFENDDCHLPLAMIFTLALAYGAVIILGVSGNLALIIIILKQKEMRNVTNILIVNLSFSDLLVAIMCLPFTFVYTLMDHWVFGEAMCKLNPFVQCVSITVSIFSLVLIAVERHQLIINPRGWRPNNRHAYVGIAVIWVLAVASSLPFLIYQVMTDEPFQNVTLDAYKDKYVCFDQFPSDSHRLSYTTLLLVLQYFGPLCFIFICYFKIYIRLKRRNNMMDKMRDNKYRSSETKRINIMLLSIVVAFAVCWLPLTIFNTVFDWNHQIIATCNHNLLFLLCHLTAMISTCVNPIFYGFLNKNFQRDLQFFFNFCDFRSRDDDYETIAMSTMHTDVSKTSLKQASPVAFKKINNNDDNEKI
Kind of experiment: NPY Y1 receptor binding, [125I]PYY on SK-N-MC cells. The conditions noted are these: test compounds at 5 µM final concentration, [125I]PYY about 50 pM, read-out: IC50 (µM) NPY receptor indicated hY1. As to the method: For instance, test compounds antagonistic to human NPY Y1 receptor subtype can be identified by a modified method of Gordon et al., J. Neurochem. 55:506-513,(1990), wherein SK-N-MC cells (ATCC, Rockville, ND) are plated in 24-well plates. Once confluent, the cells are rinsed with Dulbecco's phosphate buffered saline (DPBS). Cells are then preincubated in binding buffer containing serum-free DMEM, 25 mM HEPES (pH 7.3), 0.5% bovine serum albumin (BSA), 0.1% bacitracin and 0.1mM phenylmethylsulfonyl fluoride for 30 minutes at room temperature. Test compounds at a final concentration of 5 µM, and [^125I] PYY (about 50 pM:NEN-DuPont) are added to the wells, and the cells are incubated for an additional 3 hours at room temperature, followed by rinsing with ice-cold DPBS. Nonspecific binding is defined with 1 µM NPY. After lysing the cells with 1% Triton X-100, the amount of radioactivity in the lysates is quantitated with a gamma counter.

The next experiment has as its target T2, human NPY Y2 (Homo sapiens, UniProt P49146).
T2 sequence (P49146 1-381): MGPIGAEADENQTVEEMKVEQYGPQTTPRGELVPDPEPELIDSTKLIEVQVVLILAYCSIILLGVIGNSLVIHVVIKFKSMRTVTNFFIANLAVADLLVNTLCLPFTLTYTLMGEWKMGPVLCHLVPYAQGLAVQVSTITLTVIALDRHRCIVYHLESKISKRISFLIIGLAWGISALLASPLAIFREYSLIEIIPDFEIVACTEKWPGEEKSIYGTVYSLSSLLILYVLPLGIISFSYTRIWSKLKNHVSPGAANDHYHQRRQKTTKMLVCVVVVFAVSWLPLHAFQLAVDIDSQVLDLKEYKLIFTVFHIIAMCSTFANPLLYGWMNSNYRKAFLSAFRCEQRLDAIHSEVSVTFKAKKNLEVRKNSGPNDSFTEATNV
Kind of experiment: NPY Y2 receptor membrane binding, [125I]PYY. As to conditions: membrane protein; 25 pM [125I]PYY; test compounds at 5 µM final concentration; read-out: IC50 (µM) NPY receptor indicated hY2. As to the method: Assays to determine binding affinity for human NPY Y2 and Y4/PP1 receptor subtypes are performed on GF/C Millipore 96-well plates pretreated with 0.02% polyethylenimine. […] Samples consist of membrane protein, 25 pM [^125I]PYY and test compounds at 5 µM final concentration. Nonspecific binding is defined by 1 µM NPY. The binding buffer for human Y4/PP1 binding consists of 137 mM NaCl, 5.4 mM KCl, 0.44 mM KH2PO4, 1.26 mM CaCl2, 0.81 mM MgSO4, 20 mM HEPES, 1 mM dithiothreitol, 0.1% bacitracin, 100 mg/l streptomycin sulfate, 1 mg/l aprotinin, 10 mg/ml soybean trypsin inhibitor and 0.3% BSA, pH 7.4. Samples consist of membrane protein, 50 pM human [^125I] human PP (hPP:NEN DuPont, Boston MA) and test compounds diluted to a final concentration of 5 µM. One µM hPP is used to define nonspecific binding. After a 2 hour incubation at room temperature with constant mixing, the samples are aspirated on a vacuum manifold, and rinsed with ice-cold binding buffer. The amount of radioactivity in each well is quantitated with either gamma counting or liquid scintillation.

The next experiment addresses human Y4/PP1 (Homo sapiens, UniProt P50391). Kind of experiment: NPY Y4/PP1 receptor membrane binding, [125I] human PP. The conditions noted are these: membrane protein; 50 pM [125I] human PP; test compounds at 5 µM final concentration; read-out: IC50 (µM) NPY receptor indicated hY4/pp1. The method, then:
Assays to determine binding affinity for human NPY Y2 and Y4/PP1 receptor subtypes are performed on GF/C Millipore 96-well plates pretreated with 0.02% polyethylenimine. The binding buffer for rat NPY Y2 receptor subtype binding is Krebs-Ringer bicarbonate (pH 7.4) containing 0.01% BSA and 0.005% bacitracin. Samples consist of membrane protein, 25 pM [^125I]PYY and test compounds at 5 µM final concentration. Nonspecific binding is defined by 1 µM NPY. The binding buffer for human Y4/PP1 binding consists of 137 mM NaCl, 5.4 mM KCl, 0.44 mM KH2PO4, 1.26 mM CaCl2, 0.81 mM MgSO4, 20 mM HEPES, 1 mM dithiothreitol, 0.1% bacitracin, 100 mg/l streptomycin sulfate, 1 mg/l aprotinin, 10 mg/ml soybean trypsin inhibitor and 0.3% BSA, pH 7.4. Samples consist of membrane protein, 50 pM human [^125I] human PP (hPP:NEN DuPont, Boston MA) and test compounds diluted to a final concentration of 5 µM. One µM hPP is used to define nonspecific binding. After a 2 hour incubation at room temperature with constant mixing, the samples are aspirated on a vacuum manifold, and rinsed with ice-cold binding buffer. The amount of radioactivity in each well is quantitated with either gamma counting or liquid scintillation.

For experiment [2], the target named is T3, rat NPY Y5 receptor subtype (Rattus norvegicus, UniProt Q63634).
T3 sequence (Q63634 1-445): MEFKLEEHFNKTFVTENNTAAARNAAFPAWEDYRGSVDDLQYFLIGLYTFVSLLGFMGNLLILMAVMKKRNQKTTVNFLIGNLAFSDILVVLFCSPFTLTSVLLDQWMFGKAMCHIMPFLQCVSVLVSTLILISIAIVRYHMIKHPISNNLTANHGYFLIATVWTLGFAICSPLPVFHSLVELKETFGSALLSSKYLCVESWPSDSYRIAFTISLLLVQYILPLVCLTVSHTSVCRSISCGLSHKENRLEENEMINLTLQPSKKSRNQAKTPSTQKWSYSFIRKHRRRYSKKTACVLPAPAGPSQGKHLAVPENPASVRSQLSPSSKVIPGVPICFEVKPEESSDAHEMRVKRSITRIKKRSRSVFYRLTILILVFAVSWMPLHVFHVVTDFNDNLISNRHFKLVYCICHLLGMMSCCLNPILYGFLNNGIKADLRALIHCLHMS
Kind of experiment: NPY Y5 receptor membrane binding, [125I]PYY (rat). As to conditions: for IC50: membrane protein, 75-100 pM [125I]PYY, 50% inhibition of specific binding, read-out: IC50 (µM) NPY receptor indicated rY5; for NPY receptor indicated rY5, %@1µM: printed in the rY5 IC50 column. The method, then: (§1) Assays to determine human and rat NPY Y5 receptor subtype binding affinity are performed on GF/C Millipore 96-well plates pretreated with 0.02% polyethylenimine. The binding buffer is 25 mM Tris, 120 mM NaCl, 5 mM KCl, 1.2 mM KH2PO4, 2.5 mM CaCl2, 1.2 mM MgSO4, 0.1% BSA and 0.5 mg/ml bacitracin, pH 7.4. Samples consist of membrane protein, 75-100 pM [^125I] PYY (porcine, NEN-DuPont) and test compounds diluted in binding buffer. Nonspecific binding is defined by 1 µM PYY. After a 2 hour incubation at room temperature with constant mixing, the samples are aspirated on a vacuum manifold and rinsed with ice-cold binding buffer. The amount of radioactivity in each well is quantitated with either gamma counting or liquid scintillation. IC50 values, which correspond to 50% inhibition of specific binding, are determined with non-linear regression analysis.

The target of the next experiment is T4, rat NPY Y5 receptor (Rattus norvegicus, UniProt Q63634).
T4 construct: expressed in transfected cells
T4 sequence (Q63634 1-445): T3 sequence (Q63634 1-445)
Kind of experiment: In vitro functional assay, forskolin-stimulated cAMP in cells stably expressing the receptor. It is filed as cell-based. As to conditions: percentage of forskolin-stimulated adenylate cyclase; 1 µM forskolin; test compound 10 µM; 80 - 120% indicates no significant agonistic effect. As to the method:
An in vitro functional assay to determine rat NPY Y5 receptor subtype binding affinity is performed by resuspending cells stably expressing the rat NPY Y5 receptor in serum-free DMEM containing 10 mM HEPES (pH 7.4) and 1 mM isobutylmethylxanthine (IBMX). One µM forskolin and test compounds at a final concentration of 10 µM are then added to the cells. After a 20 minute incubation of the samples at 37°C, the assay is stopped by placing the samples in boiling water for 3 minutes. The cAMP produced in each sample is quantitated with a radioimmunoassay kit (NEN DuPont). Data are expressed as a percentage of forskolin-stimulated adenylate cyclase. Data between 80 - 120% indicates no significant agonistic effect.

The target in experiment [3] is T5, human NPY Y5 receptor subtype (Homo sapiens, UniProt Q15761).
T5 sequence (Q15761 1-445): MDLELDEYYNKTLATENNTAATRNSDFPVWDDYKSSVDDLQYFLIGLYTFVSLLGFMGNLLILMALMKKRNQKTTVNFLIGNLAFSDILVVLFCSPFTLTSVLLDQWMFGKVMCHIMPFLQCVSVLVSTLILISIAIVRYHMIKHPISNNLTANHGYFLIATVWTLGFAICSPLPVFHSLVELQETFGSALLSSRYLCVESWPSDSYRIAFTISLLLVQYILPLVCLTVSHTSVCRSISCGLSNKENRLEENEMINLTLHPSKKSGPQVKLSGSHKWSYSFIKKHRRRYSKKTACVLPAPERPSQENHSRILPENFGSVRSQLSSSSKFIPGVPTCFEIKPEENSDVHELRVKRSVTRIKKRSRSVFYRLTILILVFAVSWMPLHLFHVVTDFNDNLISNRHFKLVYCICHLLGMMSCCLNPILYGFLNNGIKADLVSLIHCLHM
Kind of experiment: NPY Y5 receptor membrane binding, [125I]PYY (human). As to conditions: membrane protein; 75-100 pM [125I]PYY; 50% inhibition of specific binding; read-out: IC50 (µM) NPY receptor indicated hY5. As to the method:
as §1

human Y4/PP1, sequence (P50391 whole entry): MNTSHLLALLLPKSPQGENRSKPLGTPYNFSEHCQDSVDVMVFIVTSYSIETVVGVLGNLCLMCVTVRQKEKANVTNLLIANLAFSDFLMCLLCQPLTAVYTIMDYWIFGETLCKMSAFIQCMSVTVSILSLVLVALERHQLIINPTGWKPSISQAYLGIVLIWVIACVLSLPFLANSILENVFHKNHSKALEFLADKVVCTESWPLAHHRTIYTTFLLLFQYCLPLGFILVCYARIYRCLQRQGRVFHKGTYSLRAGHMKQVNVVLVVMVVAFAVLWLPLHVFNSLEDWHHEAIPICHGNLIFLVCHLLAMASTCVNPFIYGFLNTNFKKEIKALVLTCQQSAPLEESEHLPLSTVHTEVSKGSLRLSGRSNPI

As for `Cc1ccc(S(=O)(=O)CC(C(=O)c2ccc3ccccc3n2)c2ccccc2)cc1` (centres unmarked) [Compound 1], the IC50 is more than 5 µM in experiment [1], more than 5 µM at human NPY Y2, more than 5 µM on human Y4/PP1 and 9.8 µM in experiment [2]. The “% forskolin at 10 µM” value on rat NPY Y5 receptor stood at 78%.

Turning to `Cc1ccc(S(=O)(=O)CC(C(=O)c2ncc[nH]2)c2ccccc2)cc1` (centres unmarked) [Compound 3, (1H-Imidazol-2-yl)-2-phenyl-3-(toluene-4-sulfonyl)-propan-1-one], the IC50 at human NPY Y2 and at human Y4/PP1 was more than 5 µM each time. Further, in experiment [2], the “NPY receptor indicated rY5, %@1µM” value is given as 30%@1µM.

In the case of `Cc1ccc(SCC(C(=O)c2nc3ccccc3[nH]2)c2ccccc2)cc1` (centres unmarked) [Compound 4, (1H-Benzoimidazol-2-yl)-2-phenyl-3-p-tolylsulfanyl-propan-1-one], the IC50 at human NPY Y2 and on human Y4/PP1 was more than 5 µM each time. For the same compound, the “NPY receptor indicated rY5, %@1µM” value in experiment [2] worked out at 2%@1µM.

As to `Cc1ccc([S+]([O-])CC(C(=O)c2nc3ccccc3[nH]2)c2ccccc2)cc1` (centres unmarked) [Compound 5, (1H-Benzoimidazol-2-yl)-2-phenyl-3-(toluene-4-sulfinyl)-propan-1-one], the IC50 at human NPY Y2 was more than 5 µM; at human Y4/PP1, more than 5 µM; in experiment [3], 0.025 µM; in experiment [2], 0.025 µM.

As to `Cc1ccc(S(=O)(=O)CC(C(=O)c2nc3ccccc3[nH]2)c2ccc(F)cc2)cc1` (centres unmarked) [Compound 9, 1-(1H-Benzoimidazol-2-yl)-2-(4-fluoro-phenyl)-3-(toluene-4-sulfonyl)-propan-1-one], the IC50 is more than 5 µM in experiment [1], more than 5 µM at human Y4/PP1, 0.015 µM in experiment [3] and 0.014 µM in experiment [2]. At rat NPY Y5 receptor, the “% forskolin at 10 µM” value is listed as 105%.

On to `O=C(c1nc2ccccc2[nH]1)C(CS(=O)(=O)c1ccc(Br)cc1)c1ccccc1` (centres unmarked) [Compound 11, 1-(1H-Benzoimidazol-2-yl)-3-(4-bromo-benzenesulfonyl)-2-phenyl-propan-1-one], for which the IC50 is more than 5 µM on human NPY Y2, more than 5 µM at human Y4/PP1 and 0.008 µM in experiment [3].

For `O=C(c1nc2ccccc2[nH]1)C(CS(=O)(=O)c1cccc2ccccc12)c1ccccc1` (centres unmarked) [Compound 12, 1-(1H-Benzoimidazol-2-yl)-3-(naphthalene-1-sulfonyl)-2-phenyl-propan-1-one], the IC50 in experiment [1] is more than 5 µM; at human NPY Y2 it was more than 5 µM; on human Y4/PP1, more than 5 µM; in experiment [3], 0.011 µM.

Regarding `Cc1ccc(S(=O)(=O)CC(C(=O)c2nc3cc(C)ccc3[nH]2)c2ccccc2)cc1` (centres unmarked) [Compound 13, (5-Methyl-1H-benzoimidazol-2-yl)-2-phenyl-3-(toluene-4-sulfonyl)-propan-1-one], the IC50 at human NPY Y2 is more than 5 µM; on human Y4/PP1 it was more than 5 µM; in experiment [3] it was 0.045 µM; in experiment [2], 0.036 µM.

As for `Cc1ccc(S(=O)(=O)CC(C(=O)c2nc3ccccc3[nH]2)c2ccccc2)cc1` (centres unmarked) [Compound 15, 1-(1H-Benzoimidazol-2-yl)-2-phenyl-3-(toluene-4-sulfonyl)-propan-1-one], the IC50 in experiment [1] is more than 5 µM; on human NPY Y2, more than 5 µM; at human Y4/PP1, more than 5 µM; in experiment [3], 0.005 µM.
